# Data published in US10597388B2, “Pyridazinone herbicides” (FMC CORPORATION, priority 2014, dated 2020).
# Like-named read-outs stand apart in the source and are kept apart here.
# Key:
# Assay type in all cases: in vivo
# [1] = test system: barnyardgrass (Echinochloa crus-galli); test: Test A greenhouse herbicide test, pre- and postemergence; conditions: for pest or weed control at 1000 g/ha: Echinochloa crus-galli, 240 h
# Excerpt: (§1) Seeds of plant species selected from barnyardgrass (Echinochloa crus-galli), kochia (Kochia scoparia), ragweed (common ragweed, Ambrosia elatior), ryegrass, Italian (Italian ryegrass, Lolium multiflorum), crabgrass, large (large crabgrass, Digitaria sanguinalis), foxtail, giant (giant foxtail, Setaria faberii), momingglory (Ipomoea spp.), pigweed (Amaranthus retroflexus), velvetleaf (Abutilon theophrasti), wheat (Triticum aestivum), and corn (Zea mays) were planted into a blend of loam soil and sand and treated preemergence with a directed soil spray using test chemicals formulated in a non-phytotoxic solvent mixture which included a surfactant.
# (§2) At the same time, plants selected from these crop and weed species and also blackgrass (Alopecurus myosuroides), and galium (catchweed bedstraw, Galium aparine) were planted in pots containing the same blend of loam soil and sand and treated with postemergence applications of test chemicals formulated in the same manner. Plants ranged in height from 2 to 10 cm and were in the one- to two-leaf stage for the postemergence treatment. Treated plants and untreated controls were maintained in a greenhouse for approximately 10 d, after which time all treated plants were compared to untreated controls and visually evaluated for injury. Plant response ratings, summarized in Table A, are based on a 0 to 100 scale where 0 is no effect and 100 is complete control. A dash (-) response means no test result.
# [2] = test system: corn (Zea mays); test: as above; conditions: Postemergence
# Excerpt: as §1, §2
# [3] = test system: foxtail, giant (giant foxtail, Setaria faberii); test: as above; conditions: for pest or weed control at 1000 g/ha: Setaria faberi, 240 h
# Excerpt: as §1, §2
# [4] = test system: kochia (Kochia scoparia); test: as above; conditions: for pest or weed control at 1000 g/ha: Bassia scoparia, 240 h
# Excerpt: as §1, §2
# [5] = test system: pigweed (Amaranthus retroflexus); test: as above; conditions: for pest or weed control at 1000 g/ha: Amaranthus retroflexus, 240 h
# Excerpt: as §1, §2
# [6] = test system: ragweed (common ragweed, Ambrosia elatior); test: as above; conditions: for pest or weed control at 1000 g/ha: Ambrosia artemisiifolia, 240 h
# Excerpt: as §1, §2
# [7] = test system: ryegrass, Italian (Italian ryegrass, Lolium multiflorum); test: as above; conditions: for pest or weed control at 1000 g/ha: Lolium multiflorum, 240 h
# Excerpt: as §1, §2
# [8] = test system: wheat (Triticum aestivum); test: as above; conditions: Postemergence
# Excerpt: as §1, §2
# [9] = test system: blackgrass (Alopecurus myosuroides); test: Test A greenhouse herbicide test, postemergence
# How it was run: (§3)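 Visual injury score, 0 (no effect) to 100 (complete control), versus untreated controls roughly 10 d after postemergence spray; plants at one- to two-leaf stage, 2 to 10 cm tall, in loam soil and sand, kept in greenhouse.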
# [10] = test system: galium (catchweed bedstraw, Galium aparine); test: Test A greenhouse herbicide test, postemergence
# How it was run: as §3
# [11] = test system: barnyardgrass (Echinochloa crus-galli); test: Test B flooded paddy test; conditions: 250 g ai/ha, Flood, visual rating on scale of 0 to 100 where 0 is no effect and 100 is complete control, 13 to 15 d after treatment
# Description: (§4) Plant species in the flooded paddy test selected from rice (Oryza sativa), sedge, umbrella (small-flower umbrella sedge, Cyperus difformis), ducksalad (Heteranthera limosa), and barnyardgrass (Echinochloa crus-galli) were grown to the 2-leaf stage for testing. At time of treatment, test pots were flooded to 3 cm above the soil surface, treated by application of test compounds directly to the paddy water, and then maintained at that water depth for the duration of the test. Treated plants and controls were maintained in a greenhouse for 13 to 15 d, after which time all species were compared to controls and visually evaluated. Plant response ratings, summarized in Table B, are based on a scale of 0 to 100 where 0 is no effect and 100 is complete control. A dash (-) response means no test result.
# [12] = test system: ducksalad (Heteranthera limosa); test: Test B flooded paddy test; conditions: 250 g ai/ha, Flood, visual rating on scale of 0 to 100 where 0 is no effect and 100 is complete control, 13 to 15 d after treatment
# Description: as §4
# [13] = test system: rice (Oryza sativa); test: Test B flooded paddy test; conditions: 250 g ai/ha, Flood, visual rating on scale of 0 to 100 where 0 is no effect and 100 is complete control, 13 to 15 d after treatment
# Description: as §4
# [14] = test system: sedge, umbrella (small-flower umbrella sedge, Cyperus difformis); test: Test B flooded paddy test; conditions: 250 g ai/ha, Flood, visual rating on scale of 0 to 100 where 0 is no effect and 100 is complete control, 13 to 15 d after treatment
# Description: as §4
# [15] = Postemergence, 125 g ai/ha, 0 to 100 scale where 0 is no effect and 100 is complete control
# [16] = Postemergence, 500 g ai/ha, 0 to 100 scale, 0 is no effect, 100 is complete control
# [17] = Preemergence, 125 g ai/ha, 0 to 100 scale where 0 is no effect and 100 is complete control
# [18] = Preemergence, 500 g ai/ha, 0 to 100 scale, 0 no effect, 100 complete control
# [19] = 125 g ai/ha, 0 to 100 scale where 0 is no effect and 100 is complete control
# [20] = 500 g ai/ha, 0 to 100 scale, 0 is no effect, 100 is complete control
# [21] = Postemergence, 1000 g ai/ha, 0 to 100 scale, 0 is no effect, 100 is complete control
# [22] = Preemergence, 1000 g ai/ha, 0 to 100 scale, 0 no effect, 100 complete control
# [23] = 1000 g ai/ha, 0 to 100 scale, 0 is no effect, 100 is complete control
structure (smiles),measurement,setting,value
"CCc1ccc2oc(C)c(-c3c(O)c(C)nn(C)c3=O)c2c1 [Compound 13, 4-(5-ethyl-2-methyl-3-benzofuranyl)-5-hydroxy-2,6-dimethyl-3(2H)-pyridazinone]",pest or weed control at 1000 g/ha,"[1]; post-emergence, Postemergence, 1000 g ai/ha, 0 to 100 scale, 0 is no effect, 100 is complete control, read-out: Barnyardgrass plant response rating",80%
same,pest or weed control at 1000 g/ha,"[1]; pre-emergence, Preemergence, 1000 g ai/ha, 0 to 100 scale, 0 no effect, 100 complete control, read-out: Plant response rating, Barnyardgrass",60%
same,plant injury at 1000 g/ha,"[2]; Zea mays, post-emergence, 240 h, 1000 g ai/ha, 0 to 100 scale, 0 is no effect, 100 is complete control, read-out: Corn plant response rating",20%
same,pest or weed control at 1000 g/ha,"[3]; post-emergence, Postemergence, 1000 g ai/ha, 0 to 100 scale, 0 is no effect, 100 is complete control, read-out: Foxtail, Giant plant response rating",80%
same,pest or weed control at 1000 g/ha,"[3]; pre-emergence, Preemergence, 1000 g ai/ha, 0 to 100 scale, 0 no effect, 100 complete control, read-out: Plant response rating, Foxtail, Giant",50%
same,pest or weed control at 1000 g/ha,"[4]; post-emergence, Postemergence, 1000 g ai/ha, 0 to 100 scale, 0 is no effect, 100 is complete control, read-out: Kochia plant response rating",30%
same,pest or weed control at 1000 g/ha,"[4]; pre-emergence, Preemergence, 1000 g ai/ha, 0 to 100 scale, 0 no effect, 100 complete control, read-out: Plant response rating, Kochia",20%
same,pest or weed control at 1000 g/ha,"[5]; post-emergence, Postemergence, 1000 g ai/ha, 0 to 100 scale, 0 is no effect, 100 is complete control, read-out: Pigweed plant response rating",20%
same,pest or weed control at 1000 g/ha,"[5]; pre-emergence, Preemergence, 1000 g ai/ha, 0 to 100 scale, 0 no effect, 100 complete control, read-out: Plant response rating, Pigweed",0%
same,pest or weed control at 1000 g/ha,"[6]; post-emergence, Postemergence, 1000 g ai/ha, 0 to 100 scale, 0 is no effect, 100 is complete control, read-out: Ragweed plant response rating",30%
same,pest or weed control at 1000 g/ha,"[6]; pre-emergence, Preemergence, 1000 g ai/ha, 0 to 100 scale, 0 no effect, 100 complete control, read-out: Plant response rating, Ragweed",0%
same,pest or weed control at 1000 g/ha,"[7]; post-emergence, Postemergence, 1000 g ai/ha, 0 to 100 scale, 0 is no effect, 100 is complete control, read-out: Ryegrass, Italian plant response rating",70%
same,pest or weed control at 1000 g/ha,"[7]; pre-emergence, Preemergence, 1000 g ai/ha, 0 to 100 scale, 0 no effect, 100 complete control, read-out: Plant response rating, Ryegrass, Italian",60%
same,plant injury at 1000 g/ha,"[8]; Triticum aestivum, post-emergence, 240 h, 1000 g ai/ha, 0 to 100 scale, 0 is no effect, 100 is complete control, read-out: Wheat plant response rating",20%
same,pest or weed control at 1000 g/ha,"[9]; Alopecurus myosuroides, post-emergence, 240 h, 1000 g ai/ha, 0 to 100 scale, 0 is no effect, 100 is complete control, read-out: Blackgrass plant response rating",30%
same,pest or weed control at 1000 g/ha,"[10]; Galium, post-emergence, 240 h, 1000 g ai/ha, 0 to 100 scale, 0 is no effect, 100 is complete control, read-out: Galium plant response rating",70%
same,pest or weed control at 250 g/ha,"[11]; Echinochloa crus-galli, 360 h, read-out: Plant response rating, Barnyardgrass",0%
same,pest or weed control at 250 g/ha,"[12]; Heteranthera limosa, 360 h, read-out: Plant response rating, Ducksalad",0%
same,plant injury at 250 g/ha,"[13]; Oryza sativa, 360 h, read-out: Plant response rating, Rice",0%
same,pest or weed control at 250 g/ha,"[14]; Cyperus difformis, 360 h, read-out: Plant response rating, Sedge, Umbrella",0%
Cc1cc(C)c2sc(C)c(-c3c(OC(=O)C(C)(C)C)c(C)nn(C)c3=O)c2c1 [Compound 43],"Plant response rating, Barnyardgrass",[1]; [15],0
same,Barnyardgrass plant response rating,[1]; [16],30
same,Barnyardgrass plant response rating,[1]; [17],0
same,"Plant response rating, Barnyardgrass",[1]; [18],10
same,"Plant response rating, Corn",[2]; [19],0
same,Corn plant response rating,[2]; [20],0
same,"Plant response rating, Foxtail, Giant",[3]; [15],0
same,"Foxtail, Giant plant response rating",[3]; [16],70
same,"Foxtail, Giant plant response rating",[3]; [17],0
same,"Plant response rating, Foxtail, Giant",[3]; [18],50
same,"Plant response rating, Kochia",[4]; [15],0
same,Kochia plant response rating,[4]; [16],10
same,Kochia plant response rating,[4]; [17],50
same,"Plant response rating, Kochia",[4]; [18],20
same,"Plant response rating, Pigweed",[5]; [15],0
same,Pigweed plant response rating,[5]; [16],10
same,Pigweed plant response rating,[5]; [17],0
same,"Plant response rating, Pigweed",[5]; [18],10
same,"Plant response rating, Ragweed",[6]; [15],0
same,Ragweed plant response rating,[6]; [16],0
same,Ragweed plant response rating,[6]; [17],0
same,"Plant response rating, Ragweed",[6]; [18],10
same,"Plant response rating, Ryegrass, Italian",[7]; [15],40
same,"Ryegrass, Italian plant response rating",[7]; [16],60
same,"Ryegrass, Italian plant response rating",[7]; [17],10
same,"Plant response rating, Ryegrass, Italian",[7]; [18],70
same,"Plant response rating, Wheat",[8]; [19],0
same,Wheat plant response rating,[8]; [20],0
same,"Plant response rating, Blackgrass",[9]; [19],30
same,Blackgrass plant response rating,[9]; [20],80
same,"Plant response rating, Galium",[10]; [19],50
same,Galium plant response rating,[10]; [20],90
same,"Plant response rating, Barnyardgrass",[11],0
same,"Plant response rating, Ducksalad",[12],0
same,"Plant response rating, Rice",[13],0
same,"Plant response rating, Sedge, Umbrella",[14],0
CC(=O)COc1c(C)nn(C)c(=O)c1-c1cccc2ccccc12 [Compound 178],Barnyardgrass plant response rating,[1]; [21],0
same,"Plant response rating, Barnyardgrass",[1]; [22],0
same,Corn plant response rating,[2]; [23],0
same,"Foxtail, Giant plant response rating",[3]; [21],0
same,"Plant response rating, Foxtail, Giant",[3]; [22],0
same,Kochia plant response rating,[4]; [21],10
same,"Plant response rating, Kochia",[4]; [22],0
same,Pigweed plant response rating,[5]; [21],70
same,"Plant response rating, Pigweed",[5]; [22],0
same,Ragweed plant response rating,[6]; [21],60
same,"Plant response rating, Ragweed",[6]; [22],0
same,"Ryegrass, Italian plant response rating",[7]; [21],70
same,"Plant response rating, Ryegrass, Italian",[7]; [22],60
same,Wheat plant response rating,[8]; [23],0
same,Blackgrass plant response rating,[9]; [23],30
same,Galium plant response rating,[10]; [23],70
COC(=O)COc1c(C)nn(C)c(=O)c1-c1cccc2ccccc12 [Compound 182],Barnyardgrass plant response rating,[1]; [21],0
same,"Plant response rating, Barnyardgrass",[1]; [22],0
same,Corn plant response rating,[2]; [23],0
same,"Foxtail, Giant plant response rating",[3]; [21],0
same,"Plant response rating, Foxtail, Giant",[3]; [22],0
same,Kochia plant response rating,[4]; [21],0
same,"Plant response rating, Kochia",[4]; [22],0
same,Pigweed plant response rating,[5]; [21],0
same,"Plant response rating, Pigweed",[5]; [22],0
same,Ragweed plant response rating,[6]; [21],30
same,"Plant response rating, Ragweed",[6]; [22],0
same,"Ryegrass, Italian plant response rating",[7]; [21],0
same,"Plant response rating, Ryegrass, Italian",[7]; [22],0
same,Wheat plant response rating,[8]; [23],0
same,Blackgrass plant response rating,[9]; [23],10
same,Galium plant response rating,[10]; [23],50
